Laboratory results from PMC4336630 (Molecular cell, 2015).
“Also recorded” adds a separate entry of the source.

What was measured:
[1] = biological target: T1, S. aureus GMK (Staphylococcus aureus, UniProt P99176); test: biochemical
[2] = biological target: T1, S. aureus GMK
[3] = biological target: T2, E. coli GMK (Escherichia coli, UniProt P60546); assay type: biochemical
[4] = biological target: M. tuberculosis GMK (Mycobacterium tuberculosis, UniProt P9WKE9); assay type: biochemical
[5] = biological target: T3, B. subtilis GMK (Bacillus subtilis, UniProt O34328); assay type: binding
[6] = biological target: T. thermophilus IMPDH; settings: cited from earlier work
[7] = biological target: T4, D. radiodurans GMK (Deinococcus radiodurans, UniProt Q9RS38)
[8] = biological target: T5, B. anthracis GMK (Bacillus anthracis, UniProt Q81WG7)
[9] = system: Chimeric S. aureus GMKs with E. coli lid domains; assay type: biochemical
[10] = biological target: T6, S. mutans GMK (Streptococcus mutans serotype c, UniProt Q8DVK6)
[11] = system: Pseudomonas syringae GMK; assay type: biochemical
[12] = biological target: T7, S. coelicolor GMK (Streptomyces coelicolor, UniProt Q9KXS0); test: biochemical
[13] = biological target: T7, S. coelicolor GMK
[14] = system: Neisseria meningitidis GMK; assay type: biochemical
[15] = biological target: T6, S. mutans GMK; test: biochemical
[16] = biological target: T4, D. radiodurans GMK; test: biochemical
[17] = biological target: T5, B. anthracis GMK; test: biochemical
[18] = biological target: B. subtilis GMK Y77F (Bacillus subtilis, UniProt O34328, Y77F); assay type: biochemical
[19] = system: GMK of Rhodobacter sphaeroides; assay type: biochemical
[20] = biological target: T8, S. meliloti GMK (Sinorhizobium meliloti, UniProt Q92QZ2); test: biochemical
[21] = biological target: T3, B. subtilis GMK
[22] = biological target: T9, T. thermophilus GMK (Thermus thermophilus, UniProt Q5SI18)
[23] = biological target: T8, S. meliloti GMK
[24] = system: Yersinia enterocolitica GMK; assay type: biochemical
[25] = biological target: T10, L. monocytogenes GMK (Listeria monocytogenes serovar 1/2a, UniProt Q8Y672); test: biochemical
[26] = biological target: T3, B. subtilis GMK; test: biochemical
[27] = biological target: A. tumefaciens GMK (Agrobacterium tumefaciens, UniProt Q8UGD7); assay type: biochemical
[28] = biological target: T9, T. thermophilus GMK; test: biochemical
[29] = biological target: T10, L. monocytogenes GMK
[30] = biological target: T11, C. gilvus GMK (Cellulomonas gilvus, UniProt F8A6C8); test: biochemical
[31] = biological target: T12, E. faecalis GMK-2 (Enterococcus faecalis, UniProt Q831B6); assay type: biochemical
[32] = system: chimeric E. coli GMKs with S. aureus lid domains; assay type: biochemical
[33] = biological target: E. faecalis GMK-1 (Enterococcus faecalis, UniProt Q82ZD5); assay type: biochemical
[34] = system: Klebsiella pneumoniae GMK; assay type: biochemical
[35] = biological target: T12, E. faecalis GMK-2; settings: cited from earlier work
[36] = biological target: T11, C. gilvus GMK
[37] = biological target: Coxiella burnetii GMK (Coxiella burnetii, UniProt Q83EL7); assay type: biochemical
[38] = biological target: T2, E. coli GMK; assay type: binding
[39] = system: Nc1nc2c(ncn2[C@@H]2O[C@H](COP(=O)(O)O)[C@@H](O)[C@H]2O)c(=O)[nH]1; test: purified protein, by the assay type; settings: 25.0 °C

Nc1nc2c(ncn2[C@@H]2O[C@H](COP(=O)(O)OP(=O)(O)O)[C@@H](OP(=O)(O)OP(=O)(O)O)[C@H]2O)c(=O)[nH]1 [ppGpp, guanosine tetraphosphate]
Ki [1]: 8.2 µM
Mode of inhibition [2]: competitively inhibits
Inhibition of GMK activity (sensitivity) [3]: resistant

Nc1nc2c(ncn2[C@@H]2O[C@H](COP(=O)(O)OP(=O)(O)OP(=O)(O)O)[C@@H](OP(=O)(O)OP(=O)(O)O)[C@H]2O)c(=O)[nH]1 [pppGpp, guanosine pentaphosphate]
Inhibition of GMK activity (sensitivity) [4]: insensitive
Complex formation (binding) by ITC [5]: detected
Ki [6]: ~11 µM
Mode of inhibition [7]: strongly and competitively inhibited and Comp
Mode of inhibition [8]: Comp
Inhibition of GMK activity (sensitivity) [9]: more resistant
Mode of inhibition [10]: Comp
IC50 [1]: 9 to 24 µM
Ki [1]: 7 µM
Inhibition of GMK activity (sensitivity) [11]: completely resistant
Ki [12]: 61.5 ± 9.6 µM
Mode of inhibition [13]: competitively inhibited and Comp
Inhibition of GMK activity (sensitivity) [14]: completely resistant
IC50 [15]: 9 to 24 µM
Ki [15]: 16.6 ± 2.4 µM
Ki [16]: 1.6 ± 0.4 µM
IC50 [17]: ~120 µM
Ki [17]: 42.5 ± 7.3 µM
Ki of the variant (in words) [18]: increased Ki to a level comparable to that of B. anthracis GMK
Inhibition of GMK activity (sensitivity) [19]: resistant
Ki [20]: 81.6 ± 11.8 µM
Mode of inhibition [21]: Comp
Mode of inhibition [22]: strongly and competitively inhibited and Comp
Mode of inhibition [23]: modestly and competitively inhibited and Comp
Inhibition of GMK activity (sensitivity) [24]: completely resistant
IC50 [25]: 9 to 24 µM
Ki [25]: 12 ± 1.1 µM
IC50 [26]: ~16 µM
Mode of inhibition [2]: competitively inhibits and Comp
Ki [27]: 53.5 ± 8.9 µM
Mode of inhibition [27]: modestly and competitively inhibited and Comp
Ki [28]: 2.9 ± 0.5 µM
Mode of inhibition [29]: Comp
Ki [30]: 1.7 ± 0.5 µM
Ki [31]: 355 ± 26 µM
Mode of inhibition [31]: noncompetitively inhibited; also recorded: Noncomp
Inhibition of GMK activity (sensitivity) [32]: still resistant
Mode of inhibition [33]: Comp
Inhibition of GMK activity (sensitivity) [3]: completely resistant
Inhibition of GMK activity (sensitivity) [34]: completely resistant
IC50 [35]: ~460 µM
Mode of inhibition [36]: competitively inhibited and Comp
Inhibition of GMK activity (sensitivity) [37]: completely resistant
Binding by ITC [38]: not observed

B. anthracis GMK (Bacillus anthracis)
Km [39]: 78.1 ± 39.7 µM
kcat [39]: 57.6 ± 21.9 s⁻¹

B. subtilis GMK (Bacillus subtilis subsp. subtilis str. 168)
Km [39]: 24.6 ± 3.4 µM
kcat [39]: 23 ± 1 s⁻¹

C. gilvus GMK (Cellulomonas gilvus ATCC 13127)
Km [39]: 22.5 ± 7.3 µM
kcat [39]: 25 ± 2.7 s⁻¹

D. radiodurans GMK (Deinococcus radiodurans R1 = ATCC 13939 = DSM 20539)
Km [39]: 17.8 ± 5.4 µM
kcat [39]: 44.5 ± 4.4 s⁻¹

L. monocytogenes GMK (Listeria monocytogenes EGD-e)
Km [39]: 84.7 ± 14.2 µM
kcat [39]: 54.9 ± 5.6 s⁻¹

S. aureus GMK (Staphylococcus aureus subsp. aureus N315)
Km [39]: 35.1 ± 7.1 µM
kcat [39]: 72.9 ± 7.2 s⁻¹

S. coelicolor GMK (Streptomyces coelicolor A3(2))
Km [39]: 29.7 ± 3.4 µM
kcat [39]: 25.5 ± 0.7 s⁻¹

S. meliloti GMK (Sinorhizobium meliloti 1021)
Km [39]: 14.1 ± 1.3 µM
kcat [39]: 19.5 ± 0.3 s⁻¹

S. mutans GMK (Streptococcus mutans UA159)
Km [39]: 147.4 ± 68.6 µM
kcat [39]: 68.9 ± 24.8 s⁻¹

T. thermophilus GMK (Thermus thermophilus HB8)
Km [39]: 17.5 ± 4.1 µM
kcat [39]: 4.8 ± 0.4 s⁻¹
